Like-named read-outs stand apart in the source and are kept apart here.

A word on the IC50: it is the concentration needed to halve the response being measured.

The subject of experiment [1] is HepG2 cells. Briefly: Survival (MTT) cytotoxicity assay in HepG2 cells under normoxic or hypoxic conditions. It counts as cell-based. As to conditions: for IC50: Homo sapiens, MTT assay; for toxicity in hypoxic versus normoxic exposure: transient exposure to hypoxic conditions. How it is done:
Cell Culture and Cytotoxicity Assays. HepG2 cells (passage 2 from frozen stock) were cultured in RPMI 1640 containing 10% FBS. The tests were performed in 96-well plates with stock cells split equally into duplicate plates—one for normoxic and the other for hypoxic conditions. The drug(s) or vehicle (0.1% DMSO) was applied to the cells in log-exponential growth phase under normoxic conditions (5% CO2; 37 C) for 48 hours or under normoxic conditions (22 hr) followed by 2 hr hypoxic conditions (1% O2, 5% CO2, 94% N2 at 37° C.) then followed by reoxygenation for 24 hrs. For the hypoxia experiments, a glove chamber with two-way pressure value and one-way N2 inflow was used. Hypoxia conditions were met using methylene blue dye indicator (i.e. 0.015% methylene blue, 6% dextrose, 6 mM NaOH) which correlated with the O2 pressure in the glove box when measured continuously with a Clark-type electrode.^13
At 48 hrs, a tetrazolium component (MTT) assay (Promega, Madison, Wis.; Cell Titer 96 Non-Radioactive Cell Proliferation Assay) was performed following an established protocol in the laboratory. Since these assays depend on mitochondrial function, which may be affected by the state of oxygenation, clonogenic assays to verify survival function were also performed. It is important to note that the data presented for the MTT assay normalizes the OD595 for the drug treated wells (minus background) to its own vehicle treated well(s) under either normoxic or hypoxic conditions. These values are then plotted as a percentage (×100%) surviving 48 hrs of drug(s) or vehicle treatment under the said condition. These analyses have also been performed previously for other hypoxia studies.^14,15
On the technique in general: Formazan colour is commonly taken as a measure of viable cells.

The subject of experiment [2] is HepG2 cells. Briefly: HepG2 clonogenic assay (colony count) under normoxic or hypoxic conditions. It counts as cell-based. The settings on record: for cells dead / colonies dead: hypoxic conditions; for cells dead / cells dead compared with controls: 50 μM; for cells dead: p<0.00001 vs control treated hypoxic conditions; for colonies dead / colonies alive relative to controls: ~10 μM; for colonies dead: p<0.001 vs control treated cells; for cells dead compared with controls / colonies alive relative to controls: normoxic cells; for colonies alive relative to controls: FIG. 5. How it is done:
In the HepG2 clonogenic assays, 3.5×10^3 per well were seeded in 6-well plates using RPMI1640 and 10% FBS. After 24 hrs of growth at 37° C., the cells were exposed to vehicle or drug(s). After 10 days incubation with drug(s) or control, the wells were washed with PBS twice, then fixed in 10% acetic acid for 10 min, then stained with crystal violet for 10 min, and finally rinsed with distilled water at room temperature. The colonies (>50 μm likely representing >50 cells) were then visually counted in randomly chosen 1-mm×1-mm grid repeated three times. Statistical analyses of the mean number of colonies were performed by using the Mann-Whitney t test, with significant differences established as P<0.05 as previously published by the laboratory.^16 For the hypoxia conditions, after 24 hr growth in normoxic conditions as above, the vehicle or drug(s) treated cells were exposed to hypoxic environment (1% O2, 5% CO2, 94% N2 at 37° C.) for 5 hrs, followed by re-oxygenation (5% CO2; 37° C.) for the remaining 10 days.

Where [3] appears, read: 22 hr normoxia, 2 hr hypoxia (1% O2), reoxygenation 24 hrs, read-out: IC50 (hypoxia).
The mark [4] stands for this setting: normoxic conditions 48 hours, read-out: IC50 (normoxia).

In the case of `c1ccc(C2=Nc3ccccc3OC2)cc1` [Compound 3], the 50% inhibitory concentration (IC50) with HepG2 cells [1] (setting [3]) stood at 10.8 ± 1.4 µM. Besides, in the experiment with HepG2 cells [1] (setting [4]), the IC50 came out at 87 ± 1.3 µM. Also, the “toxicity in hypoxic versus normoxic exposure” value with HepG2 cells [1] is reported as “significantly more toxic to hypoxic exposure than to normoxic exposure”. In the experiment on HepG2 cells [2], the cells dead was ~98%, the colonies dead is recorded as ~71%, the “cells dead compared with controls” value was ~12% and the “colonies alive relative to controls” value was ~105%.
In the case of `Clc1ccc2c(c1)N=C(c1ccccc1)CO2` [Compound 4], the half-inhibitory concentration (IC50) was 30 ± 2.4 µM with HepG2 cells [1] (setting [3]) and 78 ± 1.2 µM in the experiment on HepG2 cells [1] (setting [4]).
For `O=[N+]([O-])c1ccc2c(c1)N=C(c1ccc(Cl)cc1)CO2` [Compound 7], in the experiment with HepG2 cells [1] (setting [3]), the IC50 was 20 ± 1.2 µM. The IC50 with HepG2 cells [1] (setting [4]) came to 78 ± 1.4 µM. In the experiment on HepG2 cells [1], the “toxicity in hypoxic versus normoxic exposure” value was “significantly more toxic to hypoxic exposure than to normoxic exposure”. In addition, in the experiment on HepG2 cells [2], the cells dead is ~83%, the colonies dead was ~28%, the “cells dead compared with controls” value is reported as ~11% and the “colonies alive relative to controls” value was ~110%.
In the case of `Clc1ccc(C2=Nc3ccc(Cl)cc3OC2)cc1` [Compound B47.2], the 50% inhibitory concentration (IC50) was 28 ± 1.6 µM in the experiment on HepG2 cells [1] (setting [3]) and 88 ± 2.4 µM with HepG2 cells [1] (setting [4]).
As to `Cc1ccc2c(c1)N=C(c1ccc(Cl)cc1)CO2` [Compound B47.4], the IC50 was 87 ± 1.8 µM in the experiment with HepG2 cells [1] (setting [3]) and > 600 µM in the experiment with HepG2 cells [1] (setting [4]).

Source of the values: patent publication US20110251189A1, “HYPOXIA TARGETED COMPOUNDS FOR CANCER DIAGNOSIS AND THERAPY” (priority 2008, published 2011).
